The test addresses T1, aryl hydrocarbon receptor (AHR) (Homo sapiens, UniProt P35869).
T1 sequence (P35869 11-848): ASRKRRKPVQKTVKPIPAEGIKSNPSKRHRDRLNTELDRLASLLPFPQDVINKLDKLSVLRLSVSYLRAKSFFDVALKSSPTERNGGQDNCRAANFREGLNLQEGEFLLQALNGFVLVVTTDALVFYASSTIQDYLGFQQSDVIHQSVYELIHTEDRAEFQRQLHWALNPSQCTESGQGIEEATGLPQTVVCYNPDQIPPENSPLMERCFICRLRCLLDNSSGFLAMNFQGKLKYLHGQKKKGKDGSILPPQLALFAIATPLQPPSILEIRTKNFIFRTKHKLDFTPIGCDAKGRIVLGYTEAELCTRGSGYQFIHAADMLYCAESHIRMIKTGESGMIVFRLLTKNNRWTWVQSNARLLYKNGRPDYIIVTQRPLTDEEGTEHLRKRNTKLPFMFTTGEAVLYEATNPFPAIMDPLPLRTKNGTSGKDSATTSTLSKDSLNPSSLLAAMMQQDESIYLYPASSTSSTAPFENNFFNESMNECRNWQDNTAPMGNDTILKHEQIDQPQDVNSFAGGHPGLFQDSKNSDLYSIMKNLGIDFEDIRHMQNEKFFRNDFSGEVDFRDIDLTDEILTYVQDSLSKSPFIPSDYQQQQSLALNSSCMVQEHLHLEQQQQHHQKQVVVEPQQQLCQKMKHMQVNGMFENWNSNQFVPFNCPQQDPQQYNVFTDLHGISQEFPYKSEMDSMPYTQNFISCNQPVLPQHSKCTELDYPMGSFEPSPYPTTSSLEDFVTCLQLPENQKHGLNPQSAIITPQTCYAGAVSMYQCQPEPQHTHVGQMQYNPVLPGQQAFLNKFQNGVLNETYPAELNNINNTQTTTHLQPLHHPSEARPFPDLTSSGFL
Nature of the test: DRE-Luciferase reporter high-throughput screen (AHR antagonist, VAF347-activated).
As a reminder, the IC50 is the point on the concentration scale where inhibition reaches its midpoint. `CCCc1c(C)nc(Nc2nc(C)c3cc(C)cc(C)c3n2)[nH]c1=O` [163A]: the IC50 was 1 to 2 µM.
Regarding `CC(=O)Nc1ccc(NC(=O)c2cccc3c2OCC3)cc1` [43A], the IC50 lay within 1 to 2 µM.
Consider `OCc1cc(Cl)c(OCc2ccc(F)cc2)c(Cl)c1` [90B], for which the concentration for half-maximal inhibition (IC50) is 1 to 2 µM.
The compound `Cc1c(-c2cc(NC(=O)C3CC3)[nH]n2)sc2ccc(Cl)cc12` [105A] returned an IC50 above 2 µM.
Compound `N#Cc1cc(F)c(NC(=O)c2nsc(Cl)c2Cl)cc1F` [28A] had an IC50 of 1 to 2 µM.
In the case of `CC(=O)N(CCc1ccccc1F)c1nc2ccccc2s1` [108B], the IC50 lay in the range of 1 to 2 µM.
`O=C(c1csc2nc(-c3ccc(F)cc3)cn12)N1C[C@@H]2CC[C@@H]1C2` [97A] displayed an IC50 of 1 to 2 µM.
Compound `COc1cccc(-c2ccc(SCc3cccnc3)nn2)c1` [89A] registered an IC50 above 2 µM.
The compound `COc1ccc(C2=C(C#N)c3nc4ccccc4n3C(=O)C2C#N)cc1` (stereo not drawn) [121B] registered an IC50 of 0.5 to 1 µM.
`COCCN1Cc2cccc(C(=O)Nc3ccc(C)c(F)c3)c2C1=O` [compound 32]: the IC50 was in the range of 0.2 to 0.5 µM.
In the case of `Cc1nc(-c2ccccc2F)sc1C(=O)NCc1ccccn1` [63A] it was above 2 µM; in that of `CN(C)c1oc(-c2ccc(COc3ccccc3)o2)nc1C#N` [151A], 1 to 2 µM; in that of `N#Cc1ccc(C(=O)Nc2ccc(Cl)c(C#N)c2)cc1` [7A], 1 to 2 µM.
`Fc1ccccc1OCc1cnn(-c2ccccc2)c1` [54B] gave an IC50 of 0.5 to 1 µM.
Consider `CCSc1ccc(-c2ccc(-n3cccn3)cc2)nn1` [91B], for which the IC50 lay within 1 to 2 µM.
Consider `Clc1ccc2nnn(OCc3coc(-c4cccs4)n3)c2c1` [132A], for which the IC50 lay within 1 to 2 µM.
Turning to `Clc1ccccc1CNc1ccc(-c2ccccc2)nn1` [87A], the concentration for half-maximal inhibition (IC50) was 1 to 2 µM.
The value for `Cc1ccc(S(=O)(=O)N=C(N)Nc2nc(C)c3cc(C)ccc3n2)cc1` [164A] was 1 to 2 µM.
The value for `COC(OC)c1ccnc(-c2ccc(I)c(F)c2)n1` [84A] was 1 to 2 µM; that for `COc1ccc(Br)cc1-c1nc(Cn2cnc(C#N)n2)cs1` [35B] was above 2 µM; that for `O=c1cc(CSc2nc3cc(Cl)ccc3o2)nc2sccn12` [112B] was 0.2 to 0.5 µM.
In turn, `COc1ccc(Nc2ccc3ccccc3n2)cc1Cl` [157A] gave a 50% inhibitory concentration (IC50) of 1 to 2 µM.
With `N#Cc1cnc2c(-c3ccc(Cl)cc3)cnn2c1` [70B], the IC50 lay within 0.5 to 1 µM.
Compound `Cc1ccc(-c2cc(C(=O)NCc3cccnc3)c3cc(Br)ccc3n2)cc1` [155A] showed an IC50 of 1 to 2 µM.
In the case of `Cn1c(N)c(-c2csc(-c3cccc(Cl)c3)n2)c(=O)n(C)c1=O` [36B], the IC50 was 1 to 2 µM.
As for `CCN(CC)c1ccc(NC(=O)c2cccnc2O)cc1` [12A], the IC50 lay within 1 to 2 µM.
The value for `COc1ccc(Cl)cc1C(=O)Nc1ccc(NC(=O)c2cccc(S(C)(=O)=O)c2)c(Cl)c1` [10B] was 0.2 to 0.5 µM.
In turn, `O=[N+]([O-])c1ccc(-n2cnc(-c3ccc(F)cc3)c2)nc1` [52B] returned a half-maximal inhibitory concentration (IC50) of 0.2 to 0.5 µM.
In turn, `Fc1ccc(-c2ccc(-c3nnc4n3CCCCC4)s2)cc1` [149A] yielded an IC50 above 2 µM.
As for `CCN(C(=O)C1CC1)c1nc(-c2ccc(OC)cc2)cs1` [58A], the 50% inhibitory concentration (IC50) was 1 to 2 µM.
As to `CCc1cc2c(=O)c(-c3nc(C)cs3)coc2c(CN2CCCC(c3cccnc3)C2)c1O` (stereo not drawn) [197A], the IC50 is 1 to 2 µM.
The value for `N#Cc1ccccc1OCc1ccc(C(N)=O)cc1` [142A] was above 2 µM.
In the case of `Cc1cnn(Cc2ncc(-c3ccccc3Br)o2)c1` [77B] it was above 2 µM; in that of `Cc1nn(C(=O)Nc2ccccc2)c(C)c1Oc1ccccc1` [22A], 1 to 2 µM.
In the case of `CCCNC(=O)c1cc2cc3ccc(C)cc3nc2o1` [184A] it was 1 to 2 µM; in that of `Cn1c(CCC(=O)OCC(=O)N2c3ccccc3CCc3ccccc32)nc2ccccc2c1=O` [127B], above 2 µM; in that of `CCOC(=O)N1CCN(c2nc(Nc3ccc(C)cc3C)c3nccnc3n2)CC1` [82A], 1 to 2 µM.
`c1ccc2nc(SCc3nc4ccccc4[nH]3)ccc2c1` [65B]: the IC50 was 1 to 2 µM.
The compound `Cc1nn2c(-c3cccc(NC(=O)CN4CCCCC4)c3)nnc2c2ccccc12` [119B] gave an IC50 of 0.2 to 0.5 µM.
In the case of `Cc1nc2nc(SCc3ccc(Cl)cc3)nn2c(C)c1Cl` [74B] it was 1 to 2 µM; in that of `Cc1cc(C)c2cc(C#N)c(Oc3cccnc3)nc2c1` [158A], 1 to 2 µM; in that of `CN1CCN(c2nc(-c3cc(F)ccc3F)cs2)CC1` [56A], above 2 µM.
For the compound `CCn1c(-c2csc(N(C(C)=O)c3ccccc3)n2)nc2ccccc21` [39B], the IC50 was 1 to 2 µM.
In turn, `Cc1nnc(Oc2ccc(Cl)cc2Cl)c2ccccc12` [159A] showed a half-maximal inhibitory concentration (IC50) of 1 to 2 µM.
Consider `Clc1ccc(/C=N/Nc2nc3cc(Cl)ccc3[nH]2)cc1` [83A], for which the IC50 is above 2 µM.
Consider `O=C(c1cc2sc3ccccc3c2s1)N1CCCCC1` [186A], for which the IC50 is above 2 µM.
On to `O=[N+]([O-])c1cccc(-c2csc(-c3cccc(-n4cnc(Cl)c4Cl)c3)n2)c1` [compound 51], for which the concentration for half-maximal inhibition (IC50) was in the range of 0.2 to 0.5 µM.
In turn, `O=C(NCCC1=CCCCC1)c1[nH]nc2c1CCCC2` [109B] returned an IC50 of 1 to 2 µM.
In the case of `O=C(Nc1ccc(N2CCc3sccc3C2)nc1)c1cc(Br)c[nH]1` [32A] it was 1 to 2 µM.
`c1cncc(-c2nnc3sc(-c4csc5c4CCCC5)nn23)c1` [99A] gave an IC50 of 1 to 2 µM.
In turn, `CC(=O)Oc1ccc2c(=O)c(-c3cnn(-c4ccccc4)c3)coc2c1C` [56B] gave an IC50 of 0.5 to 1 µM.
Turning to `CC(C)CCNC(=O)c1[nH]nc2c1COc1ccccc1-2` [183A], the concentration for half-maximal inhibition (IC50) was above 2 µM.
In the case of `Cc1nccc(-c2cc(-c3ccc(Cl)cc3Cl)no2)n1` [131A] it was 1 to 2 µM.
The value for `N#Cc1ccccc1OCc1cc(-c2cccs2)on1` [127A] was 1 to 2 µM; that for `CS(=O)(=O)c1csc(C(=O)Nc2cccc(Cl)c2)c1Cl` [18B] was above 2 µM.
`Cc1c(C(=O)Nc2ccccc2)nnn1Cc1ccccc1` [26A] returned a half-inhibitory concentration (IC50) of 1 to 2 µM.
In the case of `COc1ccc(Cl)cc1C(=O)NCc1ccc(Cl)cc1` [89B], the IC50 lay in the range of 1 to 2 µM.
Compound `CN(CC(=O)NC(=O)Nc1ccccc1)Cc1ccc(Cl)s1` [compound 153] gave an IC50 of 0.5 to 1 µM.
As to `Cc1cc([N+](=O)[O-])c(N)cc1N1CCN(c2ccccc2)CC1` [67A], the IC50 fell in the range of 1 to 2 µM.
In the case of `Cc1ccc2[nH]c(SCc3ccccc3C)nc2c1` [64B] it was 0.5 to 1 µM; in that of `O=C(Nc1cnc2ccc(C(F)(F)F)cn2c1=O)OCc1ccccc1` [compound 151], 0.5 to 1 µM.
Turning to `Cn1c(SCc2ccccc2Cl)nnc1-c1csc(-c2cccnc2)n1` [53A], the half-inhibitory concentration (IC50) was in the range of 1 to 2 µM.
`O=C(Nc1ccc2c(c1)ncn2-c1ccccc1)c1ccc(Cl)cc1` [39A] returned an IC50 of 1 to 2 µM.
In the case of `Cn1nc(N2CCN(c3ccccc3Cl)CC2)c(=O)n(C)c1=O` [42B] it was 0.2 to 0.5 µM; in that of `O=c1cc(NCc2cccc(C(F)(F)F)c2)nc2ccc(Cl)cn12` [167A], above 2 µM; in that of `O=S(=O)(Cc1cccc(F)c1)c1ccc2ccccc2c1` [93B], 0.2 to 0.5 µM.
The compound `N#Cc1c(-c2ccc(Br)cc2)csc1N1CCCCC1` [150A] came in with an IC50 above 2 µM.
For the compound `COc1ccc(N2CCN(c3nc(C(F)(F)F)cs3)CC2)cc1` [compound 111], the IC50 was 0.5 to 1 µM.
The compound `Cc1ccc(C(=O)Nc2nc3c(C)cc(C)cc3s2)cc1` [22B] returned an IC50 of 1 to 2 µM.
The compound `CN(C)C(=O)c1ccc(-c2cc(C(F)(F)F)nn2C)s1` [59B] had an IC50 of 0.5 to 1 µM.
For the compound `O=C(Nc1ccc2[nH]c(-c3ccc(Br)o3)nc2c1)c1ccc([N+](=O)[O-])cc1` [41A], the IC50 was above 2 µM.
Turning to `FCCCSc1nnc(-c2cc3cc4ccccc4nc3s2)o1` [compound 155], the IC50 lay in the range of 0.5 to 1 µM.
Compound `CC(=O)c1cnc(N2CCN(c3cccc(Cl)c3)CC2)nc1C` [69A] came in with a half-inhibitory concentration (IC50) of 1 to 2 µM.
`Cc1c(COc2ccccc2C#N)cccc1[N+](=O)[O-]` [88B] had an IC50 of 0.2 to 0.5 µM.
Regarding `COc1ccc(-c2noc(-c3cscn3)n2)cn1` [137A], the IC50 is above 2 µM.
`CC(C)c1nc2ccc(NC(=O)c3ccc(F)cc3)cc2[nH]1` [37A] gave an IC50 of 1 to 2 µM.
`O=c1[nH]nc(CNc2ccc(Cl)cc2Cl)c2ccccc12` [compound 156]: the IC50 lay in the range of 0.5 to 1 µM.
On to `CNS(=O)(=O)c1ccc2c(c1)CCN2C(=O)c1ccn(-c2cccc(F)c2)n1` [107A], for which the IC50 was 1 to 2 µM.
The compound `Nc1nccc(-c2cc(-c3cccc(C(F)(F)F)c3)no2)n1` [80B] displayed an IC50 of 0.5 to 1 µM.
Compound `COCCNc1c(C)c(C)nc2cc(-c3cc(C)oc3C)nn12` [119A] had an IC50 of 1 to 2 µM.
Regarding `COc1ccc(N2CCN(c3nc(OC)nc(OC)n3)CC2)cc1` [68A], the IC50 lay within 1 to 2 µM.
`Clc1ccc(-c2ncc(-c3cc[nH]n3)s2)cc1` [compound 64] gave a concentration for half-maximal inhibition (IC50) of 0.5 to 1 µM.
The compound `Cc1cc(N(C)C)nc(N2CCN(C(=O)Nc3cccc(F)c3)CC2)n1` [79A] yielded a 50% inhibitory concentration (IC50) of 1 to 2 µM.
`Cc1cccc(NC(=O)c2ccc3c(c2)CC(C)O3)c1` (stereo not drawn) [38A]: the IC50 was above 2 µM.

Values taken from patent publication US20210220408A1, “ARYL HYDROCARBON RECEPTOR ANTAGONISTS AND METHODS OF USE” (Magenta Therapeutics Inc., priority 2018, published 2021).
